The structures appear in SMILES notation.

Consider 1 compound from ChEMBL document CHEMBL1145398, “Bidirectional, iterative approach to the structural delineation of the functional "chemoprint" in GPR40 for agonist recognition” (J Med Chem, 2007).

Experiment [1] deals with Free fatty acid receptor 1 (Homo sapiens, UniProt O14842). Briefly: Agonist activity at human GPR40 expressed in HEK-EM 293 cells assessed as increase in intracellular calcium. The class given is functional, cell-based, HEK293. For orientation: A change in cytosolic calcium serves as a functional read-out for many receptors and channels.
Free fatty acid receptor 1 (Homo sapiens, UniProt O14842), sequence (O14842 whole entry): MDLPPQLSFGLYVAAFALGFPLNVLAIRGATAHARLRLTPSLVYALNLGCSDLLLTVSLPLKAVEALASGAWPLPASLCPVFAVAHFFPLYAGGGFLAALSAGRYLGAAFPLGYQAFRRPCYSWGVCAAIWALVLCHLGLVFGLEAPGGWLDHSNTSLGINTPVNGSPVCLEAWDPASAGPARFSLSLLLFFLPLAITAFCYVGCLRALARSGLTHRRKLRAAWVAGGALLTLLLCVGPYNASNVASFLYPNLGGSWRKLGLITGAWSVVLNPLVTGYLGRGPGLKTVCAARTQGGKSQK
In experiment [2] the target is Free fatty acid receptor 1 (Homo sapiens, UniProt O14842, N244A). The experiment in a line: Agonist activity at human GPR40 N244A mutant expressed in HEK-EM 293 cells assessed as increase in intracellular calcium. The format is functional, cell-based, HEK293.
Free fatty acid receptor 1 (Homo sapiens, UniProt O14842, N244A), sequence (O14842 whole entry N244A): as the sequence (O14842 whole entry) above, with N244A counted along it
Experiment [3] addresses Free fatty acid receptor 1 (Homo sapiens, UniProt O14842, H86F). Briefly: Agonist activity at human GPR40 H86F mutant expressed in HEK-EM 293 cells assessed as increase in intracellular calcium. The class given is functional, cell-based, HEK293.
Experiment [4] addresses Free fatty acid receptor 1 (Homo sapiens, UniProt O14842, H137F). Briefly: Agonist activity at human GPR40 H137F mutant expressed in HEK-EM 293 cells assessed as increase in intracellular calcium. The class given is functional, cell-based, HEK293.
For experiment [5], the target named is Free fatty acid receptor 1 (Homo sapiens, UniProt O14842, H86A). The experiment in a line: Agonist activity at human GPR40 H86A mutant expressed in HEK-EM 293 cells assessed as increase in intracellular calcium. The format is functional, cell-based, HEK293.
Free fatty acid receptor 1 (Homo sapiens, UniProt O14842, H86A), sequence (O14842 whole entry H86A): as the sequence (O14842 whole entry) above, with H86A counted along it
For experiment [6], the target named is Free fatty acid receptor 1 (Homo sapiens, UniProt O14842, H137A). Briefly: Agonist activity at human GPR40 H137A mutant expressed in HEK-EM 293 cells assessed as increase in intracellular calcium. The format is functional, cell-based, HEK293.
Free fatty acid receptor 1 (Homo sapiens, UniProt O14842, H137A), sequence (O14842 whole entry H137A): as the sequence (O14842 whole entry) above, with H137A counted along it
The subject of experiment [7] is Free fatty acid receptor 1 (Homo sapiens), O14842 [V237F]. The experiment in a line: Agonist activity at human GPR40 V237F mutant expressed in HEK-EM 293 cells assessed as increase in intracellular calcium. The class given is functional, cell-based. As to conditions: HEK293.
Experiment [8] deals with Free fatty acid receptor 1 (Homo sapiens), O14842 [R183A]. The experiment in a line: Agonist activity at human GPR40 R183A mutant expressed in HEK-EM 293 cells assessed as effect on intracellular calcium relative to wild type. Conditions: HEK293. The format is functional, cell-based.
Free fatty acid receptor 1 (Homo sapiens), O14842 [R183A], sequence (O14842 whole entry R183A): as the sequence (O14842 whole entry) above, with R183A counted along it
The test system of experiment [9] is Free fatty acid receptor 1 (Homo sapiens), O14842 [R258A]. Briefly: Agonist activity at human GPR40 R258A mutant expressed in HEK-EM 293 cells assessed as effect on intracellular calcium relative to wild type. The format is functional, cell-based. Conditions: HEK293.
Free fatty acid receptor 1 (Homo sapiens), O14842 [R258A], sequence (O14842 whole entry R258A): as the sequence (O14842 whole entry) above, with R258A counted along it
Experiment [10] concerns Free fatty acid receptor 1 (Homo sapiens), O14842 [R258K]. Briefly: Agonist activity at human GPR40 R258K mutant expressed in HEK-EM 293 cells assessed as effect on intracellular calcium relative to wild type. Conditions: HEK293. The format is functional, cell-based.
Free fatty acid receptor 1 (Homo sapiens), O14842 [R258K], sequence (O14842 whole entry R258K): as the sequence (O14842 whole entry) above, with R258K counted along it

Free fatty acid receptor 1 (Homo sapiens, UniProt O14842, H86F), sequence (O14842 whole entry H86F): as the sequence (O14842 whole entry) above, with H86F counted along it
Free fatty acid receptor 1 (Homo sapiens, UniProt O14842, H137F), sequence (O14842 whole entry H137F): as the sequence (O14842 whole entry) above, with H137F counted along it
Free fatty acid receptor 1 (Homo sapiens), O14842 [V237F], sequence (O14842 whole entry V237F): as the sequence (O14842 whole entry) above, with V237F counted along it

A word on the EC50: it is the concentration at which the effect is half-maximal. As to `O=C(O)CCc1ccc(NCc2cccc(Oc3ccccc3)c2)cc1` [GW9508], the EC50 in experiment [1] was 0.224 µM; in experiment [2], 17.8 µM; in experiment [3] it was 1.2 µM; in experiment [4] it was 6.8 µM; in experiment [5], 2.2 µM; in experiment [6] it was greater than 30 µM. Further, the Activity in experiment [1] (HEK293) came out at 223 nM. In addition, the Fold change in experiment [7] is 1.1; in [8], greater than 100; in experiment [9], greater than 100; in experiment [10] it was greater than 100.
